The supplement of paper PMC11061612

Legend:
AZD4320 = compound: CN(CC[C@H](CSC1=CC=CC=C1)NC2=C(C=C(C=C2)S(=O)(=O)NC(=O)C3=CC=C(C=C3)N4CCC(CC4)[C@H](C5=CC=CC=C5C6=CC=C(C=C6)Cl)O)S(=O)(=O)C(F)(F)F)CCO [AZD4320]; details: max 1 µM
In short: (§1)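 After 24 hours at 37°C and 5% CO2 in 1536-well plates holding 7.5 μl of DMEM/F12 or RPMI with 10% FBS, cancer cell lines were dosed for 72 hours, with final DMSO typically 0.2%. Viability came from CellTiter-Glo 2.0 luminescence, scaled between the means of blank wells and DMSO wells. A non-linear mixed effects model fitted a two-parameter logistic curve to each dose response to give the single-agent IC50.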

Venetoclax = compound: CC1(C)CCC(CN2CCN(c3ccc(C(=O)NS(=O)(=O)c4ccc(NCC5CCOCC5)c([N+](=O)[O-])c4)c(Oc4cnc5[nH]ccc5c4)c3)CC2)=C(c2ccc(Cl)cc2)C1 [Venetoclax]; details: max 1 µM
In short: as §1

Dasatinib = compound: CC1=C(C(=CC=C1)Cl)NC(=O)C2=CN=C(S2)NC3=CC(=NC(=N3)C)N4CCN(CC4)CCO [Dasatinib]; details: max 2 µM
In short: as §1

Taselisib = compound: Cc1nc(-c2cn3c(n2)-c2ccc(-c4cnn(C(C)(C)C(N)=O)c4)cc2OCC3)n(C(C)C)n1 [Taselisib]; details: max 10 µM
In short: as §1

Alisertib = compound: COc1cc(Nc2ncc3c(n2)-c2ccc(Cl)cc2C(c2c(F)cccc2OC)=NC3)ccc1C(=O)O [Alisertib]; details: max 10 µM
In short: as §1

Capivasertib = compound: C1CN(CCC1(C(=O)N[C@@H](CCO)C2=CC=C(C=C2)Cl)N)C3=NC=NC4=C3C=CN4 [Capivasertib]; details: max 10 µM
In short: as §1

Doxorubicin = compound: COc1cccc2c1C(=O)c1c(O)c3c(c(O)c1C2=O)C[C@@](O)(C(=O)CO)C[C@@H]3O[C@H]1C[C@H](N)[C@H](O)[C@H](C)O1 [Doxorubicin]; details: max 1 µM
In short: as §1

Savolitinib = compound: C[C@@H](c1ccc2nccn2c1)n1nnc2ncc(-c3cnn(C)c3)nc21 [Savolitinib]; details: max 1 µM
In short: as §1

Gefitinib = compound: COc1cc2ncnc(Nc3ccc(F)c(Cl)c3)c2cc1OCCCN1CCOCC1 [Gefitinib]; details: max 10 µM
In short: as §1

AZD8186 = compound: C[C@@H](Nc1cc(F)cc(F)c1)c1cc(C(=O)N(C)C)cc2c(=O)cc(N3CCOCC3)oc12 [AZD8186]; details: max 3 µM
In short: as §1

SG3199 = compound: CC1=CN2[C@@H](C1)C=NC3=CC(=C(C=C3C2=O)OC)OCCCCCOC4=C(C=C5C(=C4)N=C[C@@H]6CC(=CN6C5=O)C)OC [SG3199]; details: max 0.001 µM
In short: as §1

AZD6738 = compound: C[C@@H]1COCCN1C2=NC(=NC(=C2)C3(CC3)[S@](=N)(=O)C)C4=C5C=CNC5=NC=C4 [AZD6738]; details: max 10 µM
In short: as §1

Trametinib = compound: CC(=O)Nc1cccc(-n2c(=O)n(C3CC3)c(=O)c3c(Nc4ccc(I)cc4F)n(C)c(=O)c(C)c32)c1 [Trametinib]; details: max 1 µM
In short: as §1

AZD7648 = compound: Cc1cc2ncnn2cc1Nc1ncc2c(n1)n(C1CCOCC1)c(=O)n2C [AZD7648]; details: max 10 µM
In short: as §1

AZD5991 = compound: Cc1c2c(nn1C)CSCc1cc(n(C)n1)CSc1cc(c3ccccc3c1)OCCCc1c(C(=O)O)n(C)c3c-2c(Cl)ccc13 [AZD5991]; details: max 1 µM
In short: as §1

AZD1390 = compound: CC(C)n1c(=O)n(C)c2cnc3cc(F)c(-c4ccc(OCCCN5CCCCC5)nc4)cc3c21 [AZD1390]; details: max 0.3 µM
In short: as §1

Crizotinib = compound: C[C@@H](Oc1cc(-c2cnn(C3CCNCC3)c2)cnc1N)c1c(Cl)ccc(F)c1Cl [Crizotinib]; details: max 10 µM
In short: as §1

AZD5153 = compound: COc1nnc2ccc(N3CCC(c4ccc(OCCN5CCN(C)C(=O)[C@H]5C)cc4)CC3)nn12 [AZD5153]; details: max 1 µM
In short: as §1

AZD1775 = compound: C=CCn1c(=O)c2cnc(Nc3ccc(N4CCN(C)CC4)cc3)nc2n1-c1cccc(C(C)(C)O)n1 [AZD1775]; details: max 3 µM
In short: as §1

Palbociclib = compound: CC(=O)c1c(C)c2cnc(Nc3ccc(N4CCNCC4)cn3)nc2n(C2CCCC2)c1=O [Palbociclib]; details: max 10 µM
In short: as §1

SN-38 = compound: CCc1c2c(nc3ccc(O)cc13)-c1cc3c(c(=O)n1C2)COC(=O)[C@]3(O)CC [SN-38]; details: max 0.3 µM
In short: as §1

Lapatinib = compound: CS(=O)(=O)CCNCc1ccc(-c2ccc3ncnc(Nc4ccc(OCc5cccc(F)c5)c(Cl)c4)c3c2)o1 [Lapatinib]; details: max 10 µM
In short: as §1

Prexasertib = compound: COc1cccc(OCCCN)c1-c1cc(Nc2cnc(C#N)cn2)n[nH]1 [Prexasertib]; details: max 1 µM
In short: as §1

Olaparib = compound: O=C(c1cc(Cc2n[nH]c(=O)c3ccccc23)ccc1F)N1CCN(C(=O)C2CC2)CC1 [Olaparib]; details: max 10 µM
In short: as §1

Selumetinib = compound: Cn1cnc2c(F)c(Nc3ccc(Br)cc3Cl)c(C(=O)NOCCO)cc21 [Selumetinib]; details: max 10 µM
In short: as §1

AZD2811 = compound: CCN(CCO)CCCOc1ccc2c(Nc3cc(CC(=O)Nc4cccc(F)c4)[nH]n3)ncnc2c1 [AZD2811]; details: max 1 µM
In short: as §1

AZD0156 = compound: CN(C)CCCOc1ccc(-c2ccc3ncc4c(c3c2)n(C2CCOCC2)c(=O)n4C)cn1 [AZD0156]; details: max 3 µM
In short: as §1

MK-2206 = compound: NC1(c2ccc(-c3nc4ccn5c(=O)[nH]nc5c4cc3-c3ccccc3)cc2)CCC1 [MK-2206]; details: max 10 µM
In short: as §1

Row | Cell Line | IC50, cell viability 72 h (AZD4320) [nM] | IC50, cell viability 72 h (Venetoclax) [nM] | IC50, cell viability 72 h (Dasatinib) [nM] | IC50, cell viability 72 h (Taselisib) [nM] | IC50, cell viability 72 h (Alisertib) [nM] | IC50, cell viability 72 h (Capivasertib) [nM] | IC50, cell viability 72 h (Doxorubicin) [nM] | IC50, cell viability 72 h (Savolitinib) [nM] | IC50, cell viability 72 h (Gefitinib) [nM] | IC50, cell viability 72 h (AZD8186) [nM] | IC50, cell viability 72 h (SG3199) [nM] | IC50, cell viability 72 h (AZD6738) [nM] | IC50, cell viability 72 h (Trametinib) [nM] | IC50, cell viability 72 h (AZD7648) [nM] | IC50, cell viability 72 h (AZD5991) [nM] | IC50, cell viability 72 h (AZD1390) [nM] | IC50, cell viability 72 h (Crizotinib) [nM] | IC50, cell viability 72 h (AZD5153) [nM] | IC50, cell viability 72 h (AZD1775) [nM] | IC50, cell viability 72 h (Palbociclib) [nM] | IC50, cell viability 72 h (SN-38) [nM] | IC50, cell viability 72 h (Lapatinib) [nM] | IC50, cell viability 72 h (Prexasertib) [nM] | IC50, cell viability 72 h (Olaparib) [nM] | IC50, cell viability 72 h (Selumetinib) [nM] | IC50, cell viability 72 h (AZD2811) [nM] | IC50, cell viability 72 h (AZD0156) [nM] | IC50, cell viability 72 h (MK-2206) [nM]
1 | A204 (Rhabdomyosarcoma) | > 1000 | > 1000 | 1390 | 4320 | > 10000 | > 10000 | 528 | > 1000 | > 10000 | > 3000 | > 1 | > 10000 | > 1000 | > 10000 | > 1000 | > 300 | > 10000 | > 1000 | > 3000 | > 10000 | 132 | > 10000 | 362 | > 10000 | > 10000 | > 1000 | > 3000 | –
2 | HT55 (Colorectal Carcinoma) | > 1000 | > 1000 | > 2000 | 753 | > 10000 | > 10000 | > 1000 | > 1000 | > 10000 | > 3000 | > 1 | > 10000 | 30.1 | > 10000 | > 1000 | > 300 | > 10000 | 646 | 659 | 9650 | > 300 | 1750 | 268 | > 10000 | 1150 | > 1000 | > 3000 | –
3 | A101D (Melanoma) | > 1000 | > 1000 | > 2000 | 2710 | 5360 | > 10000 | 456 | > 1000 | > 10000 | > 3000 | > 1 | 4490 | 148 | > 10000 | 198 | > 300 | > 10000 | 155 | 687 | > 10000 | 55.9 | > 10000 | 181 | > 10000 | 3920 | > 1000 | > 3000 | > 10000
4 | GA-10 (Burkitt's Lymphoma) | > 1000 | > 1000 | 166 | 845 | 147 | 1480 | 369 | > 1000 | > 10000 | 978 | > 1 | 631 | > 1000 | > 10000 | 252 | > 300 | 2340 | 83.3 | 503 | 234 | 23.4 | > 10000 | 9.18 | > 10000 | > 10000 | 108 | > 3000 | –
